Assay results taken from US7101831B2, “Compositions of material, especially lubricants and pressure transmitting means, the production and use thereof” (Fuchs Petrolub AG, priority 2000, dated 2006).

Experiments:
Type in all cases: physicochemical
[1] = ROBOT oxidation stability test; conditions: 35 g of lubricant; 6.25 bar of oxygen; T = 120° C., without catalyst
Viscosity index (VI) = experiment: Viscosity index (VI)
Excerpt: (§1) Example 27 illustrates the properties of the methyl formyloxystearate and methyl [2,2-dimethylpropionyloxy]-stearate esters prepared according to examples 1 and 4 compared to pure methyl oleate (base raw material).

Pour point = experiment: Pour point
Excerpt: as §1

[2] = Kinematic viscosity (KV) of the esters compared to methyl oleate
Excerpt: as §1

Density = experiment: Density
Excerpt: as §1

Compound	ROBOT [1]	VI (Viscosity index (VI))	Pour point (Pour point)	KV (40° C.) [2]	KV (100° C.) [2]	Density (15° C.) (Density)
CCCCCCCC/C=C\CCCCCCCC(=O)OC [Methyl oleate, methyl oleate, reference compound]	10 min	178	−18 °C	4.5 mm^2/s	1.7 mm^2/s	
CCCCCCCCCC(CCCCCCCC(=O)OC)OC(=O)C(C)(C)C (centres unmarked) [methyl 9-(10)-[2,2′-dimethylpropionyloxy]stearate]	27 min	139	−9 °C	13.1 mm^2/s	3.4 mm^2/s	902.73 kg/m^3
methyl 9(10)-formyloxystearate [Methyl formyloxystearate]	165 min	120	−18 °C	12.0 mm^2/s	3.1 mm^2/s	933.65 kg/m^3
